For one compound, IC90 results are on record in patent publication US20240376073A1 (Hoffmann-La Roche Inc., priority 2021, published 2024).

By IC90 is commonly meant the point of the concentration-response curve where the effect stands at 90%.

Counter-ions that a name gives are not always drawn.

The test relates to Acinetobacter baumannii ATCC17961. Kind of test: Antimicrobial susceptibility testing: 90% growth inhibitory concentration (IC90) determination. In kind it is cell-based. The following applies: Acinetobacter baumannii ATCC17961; Iso-Sensitest broth; growth by OD 600 nm over 16 h; 35±2° C.; read-out: ATCC 17961 IC90. In short, it runs like this: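 Twofold serial dilutions (e.g. 50 to 0.097 μM final) in Iso-Sensitest broth, inoculated at ~5×10^(5) CFU/ml, incubated at 35±2° C. OD600 read every 20 min over 16 h; IC90 derived from growth inhibition during logarithmic growth.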

In the case of `Cn1c(-c2ccc(OCC#N)c(F)c2F)cnc1C(=O)Nc1ccc(C(=O)N[C@H]2C[C@@H](NCC[N+](C)(C)C)C2)c(Cl)c1` [Example A17, 2-[[3-[[2-chloro-4-[[5-[4-(cyanomethoxy)-2,3-difluoro-phenyl]-1-methyl-imidazole-2-carbonyl]amino]benzoyl]amino]cyclobutyl]amino]ethyl-trimethyl-ammonium formate], the concentration for an effect of 90% (IC90) is 340 nM.
